Patent publication US20220118170A1, “SYSTEMS, APPARATUS, AND METHODS FOR ADMINISTERING A SUBSTANCE” (Massachusetts Institute of Technology, priority 2015, published 2022)

Experiments:
[1] = set-up: species or system Yorkshire pigs; conditions: both, Yorkshire, pig, in vivo
Procedure: Before every experiment, the animal was fasted overnight.
In step 1402, the subject's rectum is cleared, for example, with a tap water enema. In the study, a clean rectum was confirmed by colonoscopy prior to treatment.
In step 1404, a medicated enema is instilled.
In step 1406, ultrasound is applied. In the study, Control and Treatment tests were performed on separate days. For Treatment tests, the ultrasound treatment was applied using a 20 kHz horn for 2 minutes at a 50% duty cycle at an intensity of 7.5 W/cm^2. For Control tests, the ultrasound probe was inserted into the colon, but not turned on (n=16).
In step 1408, the tissue is biopsied for further assessment. Colonic areas treated with ultrasound were biopsied using endoscopic biopsy forceps (available from, e.g., US Endoscopy, Mentor, Ohio) for drug delivery evaluation as well as histological analysis (n=13).
Each point represents one biological replicate (n=16 for Control, n=13 for Treatment).
Tissue was ground and mixed with phosphate buffered saline and precipitated with 10% trichloroacetic acid. The resulting supernatant was extracted with ethyl acetate. This extract was dried with anhydrous sodium sulfate, transferred to a glass tube, and evaporated to dryness under nitrogen. […] Finally, the sample was allowed to cool to room temperature and analyzed by GC/MS. […]

[2] = tested on: dextran sodium sulfate (DSS)-induced acute colitis; test: Dextran sodium sulfate-induced murine colitis model, mesalamine enema with radial UMGID; assay type: in vivo, C57BL/6 mice
From the text: Therefore, improvement in disease indices in this model as a result of ultrasound treatment would underscore the impact of UMGID. Given the colonic anatomy and the often circumferential nature of colitis involvement, it was hypothesized that radial UMGID would be most beneficial so as to direct the treatment over the largest area of inflamed tissue. […] The two bumps shown have a diameter of 3 mm and enhance radial ultrasound emission. […] Fifteen-week old, female C57BL/6 mice were purchased from Charles River Laboratories (Wilmington, Mass.) for the induction and treatment of dextran sodium sulfate (DSS)-induced colitis. Five animals were utilized per group. […] Each cage (group) was used as it was received and randomly assigned to experimental groups by the researchers performing the work. On day 1, blood was drawn from all mice and an initial weight of each animal was taken. Colitis was induced with 40-50 kDa dextran sulfate sodium salt (DSS) (available from, e.g., Affymetrix Inc., Santa Clara, Calif.). Starting on day 1, a 3% w/w DSS solution was administered in drinking water ad libitum. On days 3 and 5, the drinking solution was replaced with fresh DSS solution. […] The animals were monitored daily for weight, fecal consistency, and for the presence of fecal occult blood using Hemoccult cards (Beckman Coulter, Pasadena, Calif.). Fecal consistency and the presence of blood was scored based on previously published protocols. Specifically, stool consistency was scored as follows: (1) normal pellet-like feces, (2) pellet of stool easily crushed, (3) soft, watery stool with granules present, or (4) diarrhea. […] Animals with negative hemoccult results were scored (1). […] On day 14, a final weight was taken and fecal score assessed. […] Scores were determined according to previously published protocols with slight modification as follows in TABLE 3: Each tissue cross-section present on the microscope slide (n=2-6) was scored individually between 0-4 with a corresponding percentage involvement (rounded to the nearest quartile). […]

[3] = Effect of sonication on molecular structure (1H NMR); assay type: physicochemical; conditions: 20 kHz ultrasound at highest intensity, 4 mg/mL in deuterated DMSO
Procedure: Three biological replicates were performed. Unsonicated samples were used as the control. A Varian 500 (1H, 500 MHz) spectrometer was used to record 1H NMR spectra, then processed using Mnova NMR software (available from Mestralab Research, A Coruña, Spain). The 1H NMR spectra were referenced with residual non-deuterated solvent shifts (DMSO-d5=2.5 ppm). All shifts are reported in ppm. Note the disappearance of the volatile internal tetramethylsilane (TMS) standard after ultrasound treatment, which was carried out in an uncapped vial.
Deuterium exchange occurs as labile protons on the analyte exchange with the deuterated solvent in which it is dissolved. Replacement of protons by deuterium results in loss of signal, shown either as a reduction in the integration fractions or disappearance of the peak altogether. Other indications of deuterium exchange include a slight broadening of peak shape, a shift in peak location, and slight change in J coupling values.

[4] = tested on: blood-glucose; conditions: swine, enema containing 100U insulin with 1-minute 20 kHz ultrasound
Procedure: Both female and male Yorkshire pigs between 45-80 kg in weight were used for one study based on the availability of sex from the vendor. […] Before every experiment, the animal was fasted overnight. Sedation was induced with intramuscular injection of Telazol® tiletamine, 5 mg/kg (available from Zoetis, Inc., Florham, N.J.), xylazine 2 mg/kg, and atropine 0.04 mg/kg. The animal was then intubated and sedation maintained with isoflurane (1-3% inhaled).
In addition to the preparation noted above, a central venous catheter was placed in the femoral vein using the Seldinger technique to allow for frequent blood sampling. […] A real-time readout was achieved using a TRUEtrack® blood glucose meter (available from Nipro Diagnostics Inc., Fort Lauderdale, Fla.). The remaining blood sample was saved in a blood collection tube with sodium fluoride and ethylenediaminetetraacetic acid (EDTA) to minimize further glucose metabolism. All data shown represents the blood-glucose values quantified from the blood collection tubes, which was evaluated in a blinded fashion.
The blood-glucose was monitored for at least 40 minutes, depending on the experiment's effect on blood-glucose. When necessary, hypoglycemia was corrected with intravenous boluses of 50% dextrose (only needed when ultrasound treatment took place). […]

[5] = tested on: colon tissue; test: Ex vivo delivery of radiolabeled permeants in Franz diffusion cells, colon; conditions: colonic tissue, ultrasound treatment, on average
Procedure: Solutions of the four compounds at a concentration of 1 mg/mL were prepared with a radiolabel content ranging from about 0.001% to about 2.5% depending on the stock solution's radiolabel content.
GI tissue (e.g., tongue, esophagus, stomach, intestine, and colon tissue) from Yorkshire pigs was procured within 20 minutes of animal euthanization and stored at about 4° C. Drug delivery testing took place within 6 hours of euthanization. Upon delivery, the fresh porcine tissue was washed with PBS and excess fat was carefully dissected away. With the exception of tongue tissue, the full thickness of the tissue was used for testing. The tissue was sectioned into approximately 2 cm-by-2 cm pieces and kept hydrated with PBS. The variability in thickness of tongue tissue prevented mounting of the entire thickness in the diffusion chambers. […]
Low-frequency (e.g., less than 100 kHz) ultrasound was utilized and administered directly to tissue and compared to controls consisting of untreated tissue. Delivery efficacy was assessed by quantifying the delivery of radiolabeled permeants into and through tissue utilizing Franz diffusion cells. […] Unless otherwise noted, delivered quantities represent the total amount of permeant delivered over this area. […]

[6] = tested on: porcine small intestine; test: Permeability in Side-Bi-Side diffusion cells; assay type: in vitro ADME
Procedure: Side-Bi-Side™ diffusion cells (available from PermeGear, Hellertown, Pa.) with inner diameters of 9 mm were used to determine permeability. Tissue was placed between the two chambers and clamped together with the luminal side facing the donor chamber. Stir bars were added to both the donor and receiver chambers and agitated using the Bell-ennium™ 9-position magnetic stirrer.
The donor solution consisted of 2 μCi/mL 3H-glucose and 2 μCi/mL 14C-labeled inulin. Each donor chamber was filled with 3 mL of this solution and the receiver solution was filled with 3 mL fresh PBS. At 10-minute intervals over the course of one hour,100 μL samples were taken from the receiver chamber and replaced with an equal volume of fresh PBS. Then, 15 mL of Hionic Fluor was added to these samples and analyzed for tritiated decomposition and 14C decomposition. Seven repeats were performed for the Control samples, and 17 for the Treated samples. […]
The only unknown in Equation 3 is the pore size in λ. Therefore, P may be determined experimentally for each permeant to estimate the membrane pore size. […]
where A is the area of the membrane exposed to the permeant, Ci is the concentration of the permeant in the donor chamber, and dQi/dt is the slope of the plot of the permeant quantity in the receiver chamber versus time after the lag-phase. […]

**Q.** Which results are given for `Nc1ccc(O)c(C(=O)O)c1` [mesalamine, 5-aminosalicylic acid]?
**A.** Drug content in tissue biopsies (limit of detection) [1]: < 50 ng/g tissue; Increase in delivery to tissue biopsies using ultrasound compared to tissue not treated [1]: 22.4 fold; Total fecal score on day 14 ([2]; mesalamine enema alone QD): significantly elevated; Total fecal score on day 14 ([2]; mesalamine enema with ultrasound treatment QD): below 4; Total fecal score on day 14 ([2]; mesalamine enema with ultrasound treatment QOD): below 4; Molecular structure / chemical stability after sonication (1H NMR) [3]: chemical stability

**Q.** Which Blood-glucose response [4] does the source give for insulin aspart here?
**A.** robust hypoglycemic response

**Q.** With inulin as the compound, how does the “Amount in the tissue compared to that in the receiver chamber” value [5] read?
**A.** 90 fold

**Q.** What about the Permeability ([6]; tissue not treated with ultrasound) of the same compound?
**A.** 0.227 ± 0.113 ×10⁻⁶ cm/s

**Q.** And the Average permeability ([6]; ultrasound treated samples, 20 kHz for 2 minutes at 50% duty cycle)?
**A.** 0.49 ± 0.227 ×10⁻⁶ cm/s
